From patent US20040157784A1, “Opiod tannate compositions” (Jame Fine Chemicals, Inc., priority 2003, published 2004)

Test: Solubility of hydrocodone free base in methylene chloride (solvent of the reaction completion test)

## COc1ccc2c3c1O[C@H]1C(=O)CC[C@H]4[C@@H](C2)N(C)CC[C@]314 [hydrocodone free base]
  soluble to the extent of (methylene chloride): 99.94%
